Data on 2 molecules can be found in US11155664B2, “Polymeric nanoparticles useful in theranostics” (THE GOVERNING COUNCIL OF THE UNIVERSITY OF TORONTO, priority 2012, dated 2021).

The conditions of series [1]: mouse, in vivo.
Text: The data are presented as mean±standard deviation of three independent runs.
T1-weighted images provide only a qualitative reflection of contrast agent distribution, primarily because of the sensitivity profiles of the RF transmit and receiver coils. In contrast, R1 maps provide a better quantitative measure of the contrast agent distribution in the whole body.
The temporal behaviour of the whole-body distribution of contrast agents was quantified by constructing R1 maps at multiple time-points following injection without moving the animal (FIG. 27A). Organ-specific concentration profiles were then quantified directly from R1 measurements in manually segmented regions-of-interest according to Equation 1 (described previously), (FIG. 27B,C).
The R1 of the left ventricular (LV) blood provides a useful indicator of vascular contrast agent enhancement in whole-body images.
The next series concerns MDA-MB435/LCC6/WT cells. In words: MTT cell viability, wild-type cells. It counts as cell-based, human.

≈ marks a conversion by molar mass, not a printed value.

Experimental for MDA-MB435/LCC6/WT cells: Cells with no treatment and incubated with blank nanoparticles were used as control for free drug and drug loaded nanoparticle respectively. Cell viability is expressed as the percent of control for each treatment group. Data points represent the mean±standard deviation of the number of trials indicated for each experiment.
The cells were treated with increasing concentrations of doxorubicin or doxorubicin-loaded nanoparticles for 24 hrs and 48 hrs, and the cell viability was determined using MTT assay.

Take `CNC(=O)CN(CCN(CCN(CC(=O)[O-])CC(=O)NC)CC(=O)[O-])CC(=O)[O-].[Gd+3]` [Omniscan®, diethylenetriamine pentaacetic acid bismethylamide gadolinium]: in series [1], the “LV blood R1” value was ~0.7 s⁻¹ and the “LV blood ΔR1” value is ~0.1 s⁻¹.

The IC50 is the concentration that gives 50% inhibition. Read a low IC50 as greater potency. Turning to `COc1cccc2c1C(=O)c1c(O)c3c(c(O)c1C2=O)C[C@@](O)(C(=O)CO)C[C@@H]3O[C@H]1C[C@H](N)[C@H](O)[C@H](C)O1` [free Dox, doxorubicin], the IC50 stood at 0.34 µg/mL (≈ 0.626 µM) in the series with MDA-MB435/LCC6/WT cells (24 hrs treatment) and 0.07 µg/mL (≈ 0.129 µM) in the series on MDA-MB435/LCC6/WT cells (48 hrs treatment).
